Results reported in ChEMBL document CHEMBL4364276, “Discovery of 4-phenyl-2H-benzo[b][1,4]oxazin-3(4H)-one derivatives as potent and orally active PI3K/mTOR dual inhibitors” (Eur J Med Chem, 2019).

Experiments:
[1] = organism: Homo sapiens; experiment: Inhibition of human AMPK (A2/B2/G3) at 100 nM using HMRSAMSGLHLVKRR as substrate by [gamma-33P]-ATP assay
[2] = biological target: Testis-specific serine/threonine-protein kinase 1 (Homo sapiens) (UniProt Q9BXA7); experiment: Inhibition of human STK22D at 100 nM using KKKVSRSGLYRSPSMPENLNRPR as substrate by [gamma-33P]-ATP assay
[3] = biological target: Dual specificity mitogen-activated protein kinase kinase 6 (Homo sapiens) (UniProt P52564); experiment: Inhibition of human MKK6 at 100 nM using p38alpha as substrate by [gamma-33P]-ATP assay
Dual specificity mitogen-activated protein kinase kinase 6 (Homo sapiens), sequence (P52564 whole entry): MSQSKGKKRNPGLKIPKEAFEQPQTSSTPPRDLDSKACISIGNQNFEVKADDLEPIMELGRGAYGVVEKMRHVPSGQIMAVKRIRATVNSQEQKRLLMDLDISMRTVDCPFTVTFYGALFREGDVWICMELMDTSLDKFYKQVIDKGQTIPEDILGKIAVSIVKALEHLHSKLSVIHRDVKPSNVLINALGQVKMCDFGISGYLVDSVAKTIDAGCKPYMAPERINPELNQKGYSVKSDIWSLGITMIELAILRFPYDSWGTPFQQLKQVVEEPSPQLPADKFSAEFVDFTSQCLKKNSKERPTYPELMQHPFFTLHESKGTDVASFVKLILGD

[4] = biological target: Tyrosine-protein kinase receptor UFO (Homo sapiens) (UniProt P30530); experiment: Inhibition of human AXL at 100 nM using EAIYAAPFAKKK as substrate by [gamma-33P]-ATP assay
[5] = test system: HeLa; experiment: Antitumor activity against human HeLa cells xenografted in ig dosed BALB/c nude mouse assessed as tumor growth inhibition administered for 30 days measured every 3 days during compound dosing relative to control; format: functional, organism-based
[6] = biological target: Insulin-like growth factor 1 receptor (Homo sapiens) (UniProt P08069); experiment: Inhibition of human IGF1R at 100 nM using KKKSPGEYVNIEFG as substrate by [gamma-33P]-ATP assay
[7] = biological target: Serine/threonine-protein kinase ULK3 (Homo sapiens) (UniProt Q6PHR2); experiment: Inhibition of human ULK3 at 100 nM using MBP as substrate by [gamma-33P]-ATP assay
[8] = biological target: Serine/threonine-protein kinase/endoribonuclease IRE2 (Homo sapiens) (UniProt Q76MJ5); experiment: Inhibition of human ERN2 at 100 nM using MBP as substrate by [gamma-33P]-ATP assay
[9] = biological target: CDK7/Cyclin H/MNAT1 (Homo sapiens) (UniProt P51946+P50613+P51948); experiment: Inhibition of human CDK7/cyclin-H/MNAT1 at 100 nM using MBP as substrate by [gamma-33P]-ATP assay; format: protein-complex assay
[10] = biological target: Ephrin type-B receptor 4 (Homo sapiens) (UniProt P54760); experiment: Inhibition of human EPHB4 at 100 nM using poly[Glu:Tyr] (4:1) as substrate by [gamma-33P]-ATP assay
Ephrin type-B receptor 4 (Homo sapiens), sequence (P54760 whole entry): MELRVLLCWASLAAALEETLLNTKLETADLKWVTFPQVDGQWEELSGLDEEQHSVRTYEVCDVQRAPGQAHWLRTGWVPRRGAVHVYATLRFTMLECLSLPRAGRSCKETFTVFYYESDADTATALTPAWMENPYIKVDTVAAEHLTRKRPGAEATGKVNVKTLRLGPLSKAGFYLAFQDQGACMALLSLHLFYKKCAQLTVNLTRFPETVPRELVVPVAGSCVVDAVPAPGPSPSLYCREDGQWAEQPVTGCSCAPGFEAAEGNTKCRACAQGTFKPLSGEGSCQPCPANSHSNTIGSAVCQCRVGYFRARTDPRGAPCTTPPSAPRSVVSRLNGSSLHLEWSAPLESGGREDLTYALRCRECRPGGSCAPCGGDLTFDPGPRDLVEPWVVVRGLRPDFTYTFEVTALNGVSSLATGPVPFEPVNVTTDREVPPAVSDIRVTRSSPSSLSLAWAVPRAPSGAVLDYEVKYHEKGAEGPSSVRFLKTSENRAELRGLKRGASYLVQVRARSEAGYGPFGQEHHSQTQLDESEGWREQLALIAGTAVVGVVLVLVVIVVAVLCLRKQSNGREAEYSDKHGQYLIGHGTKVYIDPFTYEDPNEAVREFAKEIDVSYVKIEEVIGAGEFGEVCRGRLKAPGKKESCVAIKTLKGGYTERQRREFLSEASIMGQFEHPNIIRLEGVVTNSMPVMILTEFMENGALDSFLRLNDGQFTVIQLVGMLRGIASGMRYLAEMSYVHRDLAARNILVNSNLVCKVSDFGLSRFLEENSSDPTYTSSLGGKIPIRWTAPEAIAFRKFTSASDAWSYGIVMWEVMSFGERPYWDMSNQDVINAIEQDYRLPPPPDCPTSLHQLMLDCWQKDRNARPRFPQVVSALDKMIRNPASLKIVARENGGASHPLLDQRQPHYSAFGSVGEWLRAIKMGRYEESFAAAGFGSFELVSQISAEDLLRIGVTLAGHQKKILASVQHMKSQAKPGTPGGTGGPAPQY

[11] = biological target: Calcium/calmodulin-dependent protein kinase type 1B (Homo sapiens) (UniProt Q6P2M8); experiment: Inhibition of human CAMK1B at 100 nM using KKALRRQETVDAL as substrate by [gamma-33P]-ATP assay
[12] = biological target: CDK8/Cyclin C (Homo sapiens) (UniProt P49336+P24863); experiment: Inhibition of human CDK8/cyclin-C at 100 nM using KKKVSRSGLYRSPSMPENLNRPR as substrate by [gamma-33P]-ATP assay; format: protein-complex assay
[13] = biological target: Mitogen-activated protein kinase 15 (Homo sapiens) (UniProt Q8TD08); experiment: Inhibition of human ERK7 at 100 nM using MBP as substrate by [gamma-33P]-ATP assay
[14] = biological target: Ephrin type-B receptor 2 (Homo sapiens) (UniProt P29323); experiment: Inhibition of human EPHB2 at 100 nM using poly[Glu:Tyr] (4:1) as substrate by [gamma-33P]-ATP assay
[15] = biological target: MAP/microtubule affinity-regulating kinase 4 (Homo sapiens) (UniProt Q96L34); experiment: Inhibition of human MARK4 at 100 nM using KKKVSRSGLYRSPSMPENLNRPR as substrate by [gamma-33P]-ATP assay
MAP/microtubule affinity-regulating kinase 4 (Homo sapiens), sequence (Q96L34 whole entry): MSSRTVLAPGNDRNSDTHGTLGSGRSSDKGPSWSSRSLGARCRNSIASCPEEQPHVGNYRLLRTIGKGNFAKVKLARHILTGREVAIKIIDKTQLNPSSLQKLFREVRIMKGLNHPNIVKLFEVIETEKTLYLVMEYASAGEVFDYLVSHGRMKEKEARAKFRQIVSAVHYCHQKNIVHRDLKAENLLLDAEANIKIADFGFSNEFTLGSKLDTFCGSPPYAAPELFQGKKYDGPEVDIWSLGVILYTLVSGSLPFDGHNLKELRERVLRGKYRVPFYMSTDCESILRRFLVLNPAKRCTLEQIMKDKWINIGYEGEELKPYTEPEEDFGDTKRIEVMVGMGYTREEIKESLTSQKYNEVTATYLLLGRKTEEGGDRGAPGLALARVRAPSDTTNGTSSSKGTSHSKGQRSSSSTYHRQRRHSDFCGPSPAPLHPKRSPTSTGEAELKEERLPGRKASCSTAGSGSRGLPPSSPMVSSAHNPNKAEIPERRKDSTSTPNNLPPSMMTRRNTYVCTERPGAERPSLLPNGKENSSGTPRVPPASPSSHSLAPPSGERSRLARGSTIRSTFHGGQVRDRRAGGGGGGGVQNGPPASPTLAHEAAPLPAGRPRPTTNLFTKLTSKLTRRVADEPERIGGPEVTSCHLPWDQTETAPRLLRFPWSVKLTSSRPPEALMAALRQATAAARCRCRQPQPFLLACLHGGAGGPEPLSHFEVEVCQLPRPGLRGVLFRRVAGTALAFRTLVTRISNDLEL

[16] = biological target: Dual specificity tyrosine-phosphorylation-regulated kinase 2 (Homo sapiens) (UniProt Q92630); experiment: Inhibition of human DYRK2 at 100 nM using RRRFRPASPLRGPPK as substrate by [gamma-33P]-ATP assay
[17] = biological target: Fibroblast growth factor receptor 4 (Homo sapiens) (UniProt P22455); experiment: Inhibition of human FGFR4 at 100 nM using poly[Glu:Tyr] (4:1) as substrate by [gamma-33P]-ATP assay
[18] = biological target: Serine/threonine-protein kinase 32C (Homo sapiens) (UniProt Q86UX6); experiment: Inhibition of human STK32C at 100 nM using MBP as substrate by [gamma-33P]-ATP assay
[19] = test system: MCF7; experiment: cells; details: Homo sapiens, MCF7, 72 h
[20] = Inhibition of PI3K/Akt/mTOR signaling in human HeLa cells assessed as reduction in S6 phosphorylation incubated for 24 hrs by Western blot analysis; format: cell-based
[21] = biological target: Phosphorylase b kinase gamma catalytic chain, skeletal muscle/heart isoform (Homo sapiens) (UniProt Q16816); experiment: Inhibition of human PHKgamma1 at 100 nM using MBP as substrate by [gamma-33P]-ATP assay
[22] = biological target: Dual specificity tyrosine-phosphorylation-regulated kinase 4 (Homo sapiens) (UniProt Q9NR20); experiment: Inhibition of human DYRK4 at 100 nM using RRRFRPASPLRGPPK as substrate by [gamma-33P]-ATP assay
[23] = biological target: MAP kinase-activated protein kinase 5 (Homo sapiens) (UniProt Q8IW41); experiment: Inhibition of human MAPKAPK5 at 100 nM using KKLNRTLSVA as substrate by [gamma-33P]-ATP assay
[24] = biological target: Casein kinase I isoform gamma-3 (Homo sapiens) (UniProt Q9Y6M4); experiment: Inhibition of human CK1gamma3 at 100 nM using KRRRAL[pS]VASLPGL as substrate by [gamma-33P]-ATP assay
[25] = test system: HeLa; experiment: Inhibition of colony formation in human HeLa cells at > 5 uM incubated for 2 weeks crystal violet staining based assay; format: functional
[26] = biological target: LIM domain kinase 1 (Homo sapiens) (UniProt P53667); experiment: Inhibition of human LIMK1 at 100 nM using cofilin as substrate by [gamma-33P]-ATP assay
LIM domain kinase 1 (Homo sapiens), sequence (P53667 whole entry, looked up, the tested form may be a part): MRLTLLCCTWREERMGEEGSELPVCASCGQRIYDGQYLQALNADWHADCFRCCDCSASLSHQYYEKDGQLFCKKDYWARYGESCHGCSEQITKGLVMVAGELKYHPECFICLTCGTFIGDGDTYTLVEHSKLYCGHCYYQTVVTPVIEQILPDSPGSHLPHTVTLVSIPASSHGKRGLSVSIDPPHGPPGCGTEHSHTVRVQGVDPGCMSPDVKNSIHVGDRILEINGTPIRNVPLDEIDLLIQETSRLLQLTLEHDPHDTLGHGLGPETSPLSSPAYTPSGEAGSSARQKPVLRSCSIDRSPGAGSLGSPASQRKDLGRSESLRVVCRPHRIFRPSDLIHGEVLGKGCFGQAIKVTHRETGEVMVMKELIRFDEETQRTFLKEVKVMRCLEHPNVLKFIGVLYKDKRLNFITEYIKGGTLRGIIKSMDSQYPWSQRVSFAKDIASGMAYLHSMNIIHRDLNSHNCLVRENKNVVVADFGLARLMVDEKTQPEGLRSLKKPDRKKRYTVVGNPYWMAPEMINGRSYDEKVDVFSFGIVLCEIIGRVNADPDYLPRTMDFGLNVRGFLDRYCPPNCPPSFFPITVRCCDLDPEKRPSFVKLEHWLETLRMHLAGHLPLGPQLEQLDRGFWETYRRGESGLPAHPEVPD

[27] = biological target: Myosin light chain kinase family member 4 (Homo sapiens) (UniProt Q86YV6); experiment: Inhibition of human MYLK4 at 100 nM using KKRPQRRYSNVF as substrate by [gamma-33P]-ATP assay
Myosin light chain kinase family member 4 (Homo sapiens), sequence (Q86YV6 whole entry): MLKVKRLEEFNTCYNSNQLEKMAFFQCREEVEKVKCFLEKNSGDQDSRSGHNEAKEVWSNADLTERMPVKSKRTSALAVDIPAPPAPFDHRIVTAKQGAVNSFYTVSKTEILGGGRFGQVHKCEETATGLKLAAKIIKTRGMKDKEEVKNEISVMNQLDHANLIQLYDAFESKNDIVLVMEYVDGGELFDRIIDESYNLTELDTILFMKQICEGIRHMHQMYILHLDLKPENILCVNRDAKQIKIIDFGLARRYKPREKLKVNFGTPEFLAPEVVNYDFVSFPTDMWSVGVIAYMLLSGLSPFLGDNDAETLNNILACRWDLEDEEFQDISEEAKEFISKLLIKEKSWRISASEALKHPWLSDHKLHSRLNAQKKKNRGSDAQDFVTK

[28] = biological target: Serine/threonine-protein kinase Sgk3 (Homo sapiens) (UniProt Q96BR1); experiment: Inhibition of human SGK3 at 100 nM using GRPRTSSFAEG as substrate by [gamma-33P]-ATP assay
[29] = biological target: Ephrin type-A receptor 1 (Homo sapiens) (UniProt P21709); experiment: Inhibition of human EPHA1 at 100 nM using poly[Glu:Tyr] (4:1) as substrate by [gamma-33P]-ATP assay
Ephrin type-A receptor 1 (Homo sapiens), sequence (P21709 whole entry): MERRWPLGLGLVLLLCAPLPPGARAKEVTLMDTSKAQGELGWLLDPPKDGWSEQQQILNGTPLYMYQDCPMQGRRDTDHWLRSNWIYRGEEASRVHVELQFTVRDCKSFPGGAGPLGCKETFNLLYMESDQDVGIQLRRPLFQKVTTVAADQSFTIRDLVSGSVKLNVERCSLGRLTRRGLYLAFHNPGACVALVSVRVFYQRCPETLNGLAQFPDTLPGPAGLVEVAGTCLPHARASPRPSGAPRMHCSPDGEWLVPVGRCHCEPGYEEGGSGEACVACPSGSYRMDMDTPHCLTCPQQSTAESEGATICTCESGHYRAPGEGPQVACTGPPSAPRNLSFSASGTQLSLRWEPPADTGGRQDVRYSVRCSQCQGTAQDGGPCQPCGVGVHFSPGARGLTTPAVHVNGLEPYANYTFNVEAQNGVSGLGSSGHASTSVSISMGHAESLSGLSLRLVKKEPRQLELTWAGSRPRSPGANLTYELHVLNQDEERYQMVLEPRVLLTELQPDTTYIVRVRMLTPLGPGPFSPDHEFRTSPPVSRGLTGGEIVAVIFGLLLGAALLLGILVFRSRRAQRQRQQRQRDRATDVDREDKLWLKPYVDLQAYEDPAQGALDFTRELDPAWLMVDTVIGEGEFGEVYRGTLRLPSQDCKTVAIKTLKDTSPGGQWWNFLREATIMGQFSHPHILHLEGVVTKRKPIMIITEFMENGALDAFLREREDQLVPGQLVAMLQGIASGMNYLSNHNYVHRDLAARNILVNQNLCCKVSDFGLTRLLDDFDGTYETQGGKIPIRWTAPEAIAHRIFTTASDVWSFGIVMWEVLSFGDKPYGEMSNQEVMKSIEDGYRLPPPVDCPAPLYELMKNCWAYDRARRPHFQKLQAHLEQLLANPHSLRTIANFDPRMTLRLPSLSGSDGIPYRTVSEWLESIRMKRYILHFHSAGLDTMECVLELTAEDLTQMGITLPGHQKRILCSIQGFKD

[30] = biological target: Ribosomal protein S6 kinase beta-1 (Homo sapiens) (UniProt P23443); experiment: Inhibition of human p70S6K at 100 nM using KKRNRTLTK as substrate by [gamma-33P]-ATP assay
[31] = biological target: Serine/threonine-protein kinase PAK 5 (Homo sapiens) (UniProt Q9P286); experiment: Inhibition of human PAK5 at 100 nM using RRRLSFAEPG as substrate by [gamma-33P]-ATP assay
Serine/threonine-protein kinase PAK 5 (Homo sapiens), sequence (Q9P286 whole entry, looked up): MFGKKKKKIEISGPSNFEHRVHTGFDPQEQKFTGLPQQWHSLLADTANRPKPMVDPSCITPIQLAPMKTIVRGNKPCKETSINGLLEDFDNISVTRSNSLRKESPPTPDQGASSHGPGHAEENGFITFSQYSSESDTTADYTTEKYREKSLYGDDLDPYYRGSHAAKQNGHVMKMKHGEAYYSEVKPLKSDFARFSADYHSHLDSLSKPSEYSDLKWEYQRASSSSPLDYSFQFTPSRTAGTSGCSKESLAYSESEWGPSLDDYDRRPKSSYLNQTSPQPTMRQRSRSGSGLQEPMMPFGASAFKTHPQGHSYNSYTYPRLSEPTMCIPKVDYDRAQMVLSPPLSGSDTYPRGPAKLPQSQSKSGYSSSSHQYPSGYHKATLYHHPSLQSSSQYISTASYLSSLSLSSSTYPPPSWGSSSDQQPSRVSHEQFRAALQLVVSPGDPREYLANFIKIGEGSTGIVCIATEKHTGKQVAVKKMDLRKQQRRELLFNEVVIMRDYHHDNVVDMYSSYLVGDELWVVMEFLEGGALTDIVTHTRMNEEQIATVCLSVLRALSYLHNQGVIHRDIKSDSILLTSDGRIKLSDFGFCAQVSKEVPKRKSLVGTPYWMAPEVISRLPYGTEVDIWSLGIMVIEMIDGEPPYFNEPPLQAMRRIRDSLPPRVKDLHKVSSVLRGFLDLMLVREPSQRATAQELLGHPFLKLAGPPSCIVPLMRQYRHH

`COc1ccc(N2C(=O)COc3ccc(-c4cnc(OC)c(NS(=O)(=O)c5ccc(F)cc5)c4)cc32)cc1` gave an inhibition [1] of 5.47%, an inhibition [2] of -6.47% and an inhibition [3] of 4.5%. The inhibition [4] was 25.4%, the TGI [5] was “Dose-dependent effect” and the inhibition [6] was -4.3%. The inhibition [7] was 5.64%, the inhibition [8] was -2.98% and the inhibition [9] was -3.2%. For the same compound, the inhibition [10] was 15.9%, the inhibition [11] was 7.52% and the inhibition [12] was 2.74%. The inhibition [13] was -4.54%, the inhibition [14] was -6.07% and the inhibition [15] was 1.56%. The inhibition [16] was 3.05%, the inhibition [17] was 6.2% and the inhibition [18] was -6.39%. The IC50 [19] was 8.26 µM, the inhibition [20] was “Dose-dependent effect” and the inhibition [21] was 12.3%. The inhibition [22] was -2.6%, the inhibition [23] was 5.14% and the inhibition [24] was -3.55%. The “inhibition (INH)” value [25] was “<=100%”, the inhibition [26] was -3.87% and the inhibition [27] was 7.06%. It also gave an inhibition [28] of 3.8%, an inhibition [29] of 4.93% and an inhibition [30] of 0.03%. It also gave an inhibition [31] of -1.26%.
